In patent US20060154898A1, “Diphosphonate solutions” (priority 2000, published 2006):
Counter-ions that a name gives are not always drawn.

Assay: pH of a diphosphonate solution in distilled water
Format: physicochemical
Conditions: solution of one percent in distilled water
Description: Solutions of diphosphonates will generally have a pH above that desired. For example, a solution of one percent pamidronate disodium salt in distilled water has a pH of approximately 8.3. The pH is adjusted with a suitable acid or alkali. Suitable acids include any acid such as hydrochloric or phosphoric acid. Phosphoric acid is preferred. Suitable […] include sodium hydroxide.

NCCC(O)(P(=O)(O)O)P(=O)(O)O [pamidronate disodium salt]
pH of solution: approximately 8.3
